Measured values reported in article PMC11982498 (Redox Biology, 2025).

Legend:
APP/PS1 transgenic mice = assay: TUNEL staining of brain sections; format: in vivo; details: B14 10, 20, 40 mg/kg i.p. every other day
Text: Five months old male APP/PS1 mice, weighing 25–33 g, were purchased from Guangdong Medical Laboratory Animal Center and housed in the Laboratory Animal Center of Sun Yat-sen University (Guangzhou, China) for experimentation. All procedures were approved by the Animal Care and Use Committee of Sun Yat-sen University and complied with legal requirements and national guidelines for the care and maintenance of laboratory animals (Approval No. SYSU-IACUC-2024-002032). The mice were housed in a specific pathogen-free environment with a controlled temperature of 22 ± 1 °C and a 12-h dark/light cycle. The mice were fed with a standard diet, and 30 mice were randomly divided into 6 groups (N = 5). Compound B14 was dissolved in saline and administered at doses of 10, 20, or 40 mg/kg. APP/PS1 male mice were grown until 6 months of age, and then injected intraperitoneally with compound B14 every other day for 60 days. Behavioral experiments were then conducted, and tissue specimens were collected for biochemical analysis.

SH-SY5Y cells = assay: MTT cytotoxicity assay, SH-SY5Y; format: cell-based
Description: (§1) SH-SY5Y cells, HepG2 cells, HK-2 cells and HT-22 cells were seeded on 96-well plates (5.0×10^3 per well) with 100 μL of culture medium, and incubated for 12 h at 37 °C in a humidified atmosphere with 5% CO2, and then exposed to various concentrations of B14. After 48 h of treatment at 37 °C in a humidified atmosphere with 5% CO2, 100 μL of 0.5 mg/mL MTT solution was added to each well, and the mixture was further incubated for 4 h. The cells in each well were then treated with DMSO (200 μL for each well), and the culture medium was siphoned off, and the absorbance was recorded at 570 nm. All drug doses were parallel tested in triplicate, and the cytotoxicity was evaluated based on the percentage of cell survival in a dose-dependent manner regarding the negative control. The final IC50 values were determined by using Graph Pad Prism 9.0.

HT-22 cells = assay: MTT cytotoxicity assay, HT-22; format: cell-based; details: Mus musculus, incubation for 48 h
Description: as §1

**Q.** How did the “proportion of TUNEL-positive neurons” value (APP/PS1 transgenic mice) turn out when `O=C(CCN1CCOCC1)Nc1ccc2c(c1)c(=O)c1cc(NC(=O)CCN3CCOCC3)ccc1n2-c1ccc2occc2c1` [Compound B14] was run?
**A.** significantly decreased the proportion of TUNEL-positive neurons

**Q.** What about the “toxicity to SH-SY5Y cells (viability)” value (SH-SY5Y cells) of the same compound?
**A.** no significant toxicity to SH-SY5Y cells

**Q.** And the IC50 (SH-SY5Y cells; Homo sapiens, SH-SY5Y, incubation for 48 h)?
**A.** > 100 µM

**Q.** And the IC50 (HT-22 cells)?
**A.** > 100 µM
